# In PubChem BioAssay (NCI):
#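 Where inhibition never reached the appropriate level, the endpoint shown equals the highest concentration tested. Otherwise, values were interpolated linearly from a five-concentration, 48-hour dose response in 96-well plates. TGI: concentration producing complete growth inhibition.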
# How the values were obtained:
# Test in all cases: inhibition of tumour cell growth, NCI panel, 48 h
# ACHN renal = system: ACHN renal
# CAKI-1 renal = system: CAKI-1 renal
# DMS 114 small cell lung = system: DMS 114 small cell lung
# HL-60(TB) leukemia = system: HL-60(TB) leukemia
# HOP-62 NSCLC = system: HOP-62 NSCLC
# KM12 colon = system: KM12 colon
# MALME-3M melanoma = system: MALME-3M melanoma
# MOLT-4 leukemia = system: MOLT-4 leukemia
# OVCAR-5 ovarian = system: OVCAR-5 ovarian
# RPMI-8226 leukemia = system: RPMI-8226 leukemia
# SF-268 CNS = system: SF-268 CNS
# SK-MEL-2 melanoma = system: SK-MEL-2 melanoma
# SK-OV-3 ovarian = system: SK-OV-3 ovarian
# SR leukemia = system: SR leukemia
# TK-10 renal = system: TK-10 renal
# U251 CNS = system: U251 CNS
# UACC-257 melanoma = system: UACC-257 melanoma
# UO-31 renal = system: UO-31 renal
# CCRF-CEM leukemia = system: CCRF-CEM leukemia
# COLO 205 colon = system: COLO 205 colon
# HCT-116 colon = system: HCT-116 colon
# HOP-92 NSCLC = system: HOP-92 NSCLC
# HT29 colon = system: HT29 colon
# IGROV1 ovarian = system: IGROV1 ovarian
# K-562 leukemia = system: K-562 leukemia
# LXFL 529 NSCLC = system: LXFL 529 NSCLC
# M14 melanoma = system: M14 melanoma
# M19-MEL melanoma = system: M19-MEL melanoma
# NCI-H23 lung = system: NCI-H23 lung
# NCI-H460 lung = system: NCI-H460 lung
# NCI-H522 lung = system: NCI-H522 lung
# OVCAR-3 ovarian = system: OVCAR-3 ovarian
# OVCAR-4 ovarian = system: OVCAR-4 ovarian
# RXF 393 renal = system: RXF 393 renal
# SF-295 CNS = system: SF-295 CNS
# SF-539 CNS = system: SF-539 CNS
# SK-MEL-28 melanoma = system: SK-MEL-28 melanoma
# SNB-19 CNS = system: SNB-19 CNS
# SNB-75 CNS = system: SNB-75 CNS
# SNB-78 CNS = system: SNB-78 CNS
# UACC-62 melanoma = system: UACC-62 melanoma
# 786-0 renal = system: 786-0 renal
# A498 renal = system: A498 renal
# A549 NSCLC = system: A549 NSCLC
# BT-549 breast = system: BT-549 breast
# DU-145 prostate = system: DU-145 prostate
# EKVX NSCLC = system: EKVX NSCLC
# HCC-2998 colon = system: HCC-2998 colon
# HCT-15 colon = system: HCT-15 colon
# HS 578T breast = system: HS 578T breast
# LOX IMVI melanoma = system: LOX IMVI melanoma
# MCF7 breast = system: MCF7 breast
# MDA-MB-231 breast = system: MDA-MB-231 breast
# MDA-MB-435 = system: MDA-MB-435
# MDA-N = system: MDA-N
# NCI-H226 lung = system: NCI-H226 lung
# NCI/ADR-RES ovarian = system: NCI/ADR-RES ovarian
# OVCAR-8 ovarian = system: OVCAR-8 ovarian
# PC-3 prostate = system: PC-3 prostate
# SK-MEL-5 melanoma = system: SK-MEL-5 melanoma
# SN12C renal = system: SN12C renal
# SW-620 colon = system: SW-620 colon
# T-47D breast = system: T-47D breast
compound,measurement,setting,value
CCCC(=O)OC[n+]1ccc2c(C)c3[nH]c4ccc(OC)cc4c3c(C)c2c1,TGI,ACHN renal,7.47 µM
same,TGI,CAKI-1 renal,13.6 µM
same,TGI,DMS 114 small cell lung,3.78 µM
same,TGI,HL-60(TB) leukemia,1.82 µM
same,TGI,HOP-62 NSCLC,3.08 µM
same,TGI,KM12 colon,1.77 µM
same,TGI,MALME-3M melanoma,> 100 µM
same,TGI,MOLT-4 leukemia,0.322 µM
same,TGI,OVCAR-5 ovarian,2.31 µM
same,TGI,RPMI-8226 leukemia,0.54 µM
same,TGI,SF-268 CNS,> 100 µM
same,TGI,SK-MEL-2 melanoma,7.12 µM
same,TGI,SK-OV-3 ovarian,14.9 µM
same,TGI,SR leukemia,2.89 µM
same,TGI,TK-10 renal,20.1 µM
same,TGI,U251 CNS,> 100 µM
same,TGI,UACC-257 melanoma,> 100 µM
same,TGI,UO-31 renal,6.38 µM
Cc1c(-c2c(C)c(=O)c3c(C(C)C)c(=O)c(=O)c(C=O)c-3c2=O)c(O)c2c(C=O)c(O)c(O)c(C(C)C)c2c1O,TGI,ACHN renal,10.3 µM
same,TGI,CCRF-CEM leukemia,5.07 µM
same,TGI,COLO 205 colon,11.8 µM
same,TGI,DMS 114 small cell lung,5.82 µM
same,TGI,HCT-116 colon,7.81 µM
same,TGI,HL-60(TB) leukemia,11.1 µM
same,TGI,HOP-62 NSCLC,14.3 µM
same,TGI,HOP-92 NSCLC,7.49 µM
same,TGI,HT29 colon,4.87 µM
same,TGI,IGROV1 ovarian,11.3 µM
same,TGI,K-562 leukemia,10.7 µM
same,TGI,KM12 colon,4.9 µM
same,TGI,LXFL 529 NSCLC,12.8 µM
same,TGI,M14 melanoma,4.24 µM
same,TGI,M19-MEL melanoma,15.4 µM
same,TGI,MALME-3M melanoma,15.2 µM
same,TGI,MOLT-4 leukemia,11.3 µM
same,TGI,NCI-H23 lung,10.5 µM
same,TGI,NCI-H460 lung,11.8 µM
same,TGI,NCI-H522 lung,15.7 µM
same,TGI,OVCAR-3 ovarian,7.02 µM
same,TGI,OVCAR-4 ovarian,12 µM
same,TGI,OVCAR-5 ovarian,7.82 µM
same,TGI,RPMI-8226 leukemia,9.9 µM
same,TGI,RXF 393 renal,6.99 µM
same,TGI,SF-268 CNS,18.8 µM
same,TGI,SF-295 CNS,3.94 µM
same,TGI,SF-539 CNS,8.87 µM
same,TGI,SK-MEL-2 melanoma,3.68 µM
same,TGI,SK-MEL-28 melanoma,16.4 µM
same,TGI,SK-OV-3 ovarian,13 µM
same,TGI,SNB-19 CNS,17.6 µM
same,TGI,SNB-75 CNS,26.2 µM
same,TGI,SNB-78 CNS,6.78 µM
same,TGI,SR leukemia,17.1 µM
same,TGI,U251 CNS,11.3 µM
same,TGI,UACC-257 melanoma,13.6 µM
same,TGI,UACC-62 melanoma,8.14 µM
same,TGI,UO-31 renal,5.5 µM
O=C(Nc1sccc1S(=O)(=O)c1ccc(Cl)cc1)c1ccc(Cl)cc1,TGI,786-0 renal,> 100 µM
same,TGI,A498 renal,> 100 µM
same,TGI,A549 NSCLC,> 100 µM
same,TGI,ACHN renal,> 100 µM
same,TGI,BT-549 breast,> 100 µM
same,TGI,CAKI-1 renal,> 100 µM
same,TGI,CCRF-CEM leukemia,> 100 µM
same,TGI,COLO 205 colon,> 100 µM
same,TGI,DU-145 prostate,> 100 µM
same,TGI,EKVX NSCLC,> 100 µM
same,TGI,HCC-2998 colon,> 100 µM
same,TGI,HCT-116 colon,> 100 µM
same,TGI,HCT-15 colon,> 100 µM
same,TGI,HL-60(TB) leukemia,> 100 µM
same,TGI,HOP-62 NSCLC,> 100 µM
same,TGI,HOP-92 NSCLC,> 100 µM
same,TGI,HS 578T breast,> 100 µM
same,TGI,HT29 colon,> 100 µM
same,TGI,IGROV1 ovarian,> 100 µM
same,TGI,K-562 leukemia,> 100 µM
same,TGI,KM12 colon,> 100 µM
same,TGI,LOX IMVI melanoma,> 100 µM
same,TGI,M14 melanoma,> 100 µM
same,TGI,MALME-3M melanoma,> 100 µM
same,TGI,MCF7 breast,> 100 µM
same,TGI,MDA-MB-231 breast,> 100 µM
same,TGI,MDA-MB-435,> 100 µM
same,TGI,MDA-N,> 100 µM
same,TGI,MOLT-4 leukemia,> 100 µM
same,TGI,NCI-H226 lung,> 100 µM
same,TGI,NCI-H23 lung,> 100 µM
same,TGI,NCI-H460 lung,> 100 µM
same,TGI,NCI-H522 lung,> 100 µM
same,TGI,NCI/ADR-RES ovarian,> 100 µM
same,TGI,OVCAR-3 ovarian,> 100 µM
same,TGI,OVCAR-4 ovarian,> 100 µM
same,TGI,OVCAR-5 ovarian,> 100 µM
same,TGI,OVCAR-8 ovarian,> 100 µM
same,TGI,PC-3 prostate,90.4 µM
same,TGI,RPMI-8226 leukemia,> 100 µM
same,TGI,RXF 393 renal,> 100 µM
same,TGI,SF-268 CNS,> 100 µM
same,TGI,SF-295 CNS,> 100 µM
same,TGI,SF-539 CNS,> 100 µM
same,TGI,SK-MEL-2 melanoma,> 100 µM
same,TGI,SK-MEL-28 melanoma,> 100 µM
same,TGI,SK-MEL-5 melanoma,> 100 µM
same,TGI,SK-OV-3 ovarian,> 100 µM
same,TGI,SN12C renal,> 100 µM
same,TGI,SNB-19 CNS,> 100 µM
same,TGI,SNB-75 CNS,> 100 µM
same,TGI,SR leukemia,> 100 µM
same,TGI,SW-620 colon,> 100 µM
same,TGI,T-47D breast,> 100 µM
same,TGI,TK-10 renal,> 100 µM
same,TGI,U251 CNS,> 100 µM
same,TGI,UACC-257 melanoma,> 100 µM
same,TGI,UACC-62 melanoma,> 100 µM
same,TGI,UO-31 renal,> 100 µM
N#C/C(=C\Nc1ccccn1)C(=O)C1CC1,TGI,786-0 renal,> 100 µM
same,TGI,A498 renal,> 100 µM
same,TGI,A549 NSCLC,> 100 µM
same,TGI,ACHN renal,> 100 µM
same,TGI,BT-549 breast,> 100 µM
same,TGI,CAKI-1 renal,> 100 µM
same,TGI,CCRF-CEM leukemia,> 100 µM
same,TGI,COLO 205 colon,> 100 µM
same,TGI,DU-145 prostate,> 100 µM
same,TGI,EKVX NSCLC,> 100 µM
same,TGI,HCC-2998 colon,> 100 µM
same,TGI,HCT-116 colon,> 100 µM
same,TGI,HCT-15 colon,> 100 µM
same,TGI,HL-60(TB) leukemia,> 100 µM
same,TGI,HOP-62 NSCLC,> 100 µM
same,TGI,HOP-92 NSCLC,> 100 µM
same,TGI,HS 578T breast,> 100 µM
same,TGI,HT29 colon,> 100 µM
same,TGI,IGROV1 ovarian,> 100 µM
same,TGI,K-562 leukemia,> 100 µM
same,TGI,KM12 colon,> 100 µM
same,TGI,LOX IMVI melanoma,> 100 µM
same,TGI,M14 melanoma,> 100 µM
same,TGI,MALME-3M melanoma,> 100 µM
same,TGI,MCF7 breast,> 100 µM
same,TGI,MDA-MB-231 breast,> 100 µM
same,TGI,MDA-MB-435,> 100 µM
same,TGI,MDA-N,> 100 µM
same,TGI,MOLT-4 leukemia,> 100 µM
same,TGI,NCI-H226 lung,> 100 µM
same,TGI,NCI-H23 lung,> 100 µM
same,TGI,NCI-H460 lung,> 100 µM
same,TGI,NCI-H522 lung,> 100 µM
same,TGI,NCI/ADR-RES ovarian,> 100 µM
same,TGI,OVCAR-3 ovarian,> 100 µM
same,TGI,OVCAR-4 ovarian,> 100 µM
same,TGI,OVCAR-5 ovarian,> 100 µM
same,TGI,OVCAR-8 ovarian,> 100 µM
same,TGI,PC-3 prostate,> 100 µM
same,TGI,RPMI-8226 leukemia,> 100 µM
same,TGI,RXF 393 renal,> 100 µM
same,TGI,SF-268 CNS,> 100 µM
same,TGI,SF-295 CNS,> 100 µM
same,TGI,SF-539 CNS,> 100 µM
same,TGI,SK-MEL-2 melanoma,> 100 µM
same,TGI,SK-MEL-28 melanoma,> 100 µM
same,TGI,SK-MEL-5 melanoma,> 100 µM
same,TGI,SK-OV-3 ovarian,> 100 µM
same,TGI,SN12C renal,> 100 µM
same,TGI,SNB-19 CNS,> 100 µM
same,TGI,SNB-75 CNS,> 100 µM
same,TGI,SR leukemia,> 100 µM
same,TGI,SW-620 colon,> 100 µM
same,TGI,T-47D breast,> 100 µM
same,TGI,TK-10 renal,> 100 µM
same,TGI,U251 CNS,> 100 µM
same,TGI,UACC-257 melanoma,> 100 µM
same,TGI,UACC-62 melanoma,> 100 µM
same,TGI,UO-31 renal,> 100 µM
